Laboratory results reported in ChEMBL document CHEMBL4270515, “New pyrazolopyridine analogs: Synthesis, antimicrobial, antiquorum-sensing and antitumor screening” (Eur J Med Chem, 2018).
≈ marks a conversion by molar mass, not a printed value.

Experiments:
Candida albicans = test: Antimicrobial activity against Candida albicans after 48 hrs by two-fold serial dilution method; assay type: functional
Mus musculus [1] = test: Toxicity in Swiss albino mouse implanted with mouse EAC cells assessed as effect on RBC count at 0.5 mg/mouse administered for 9 days (reference value: 3.69 10^6/mm3); assay type: organism-based; details: in vivo, 216 h
Ehrlich [2] = test: Antitumor activity against mouse EAC cells implanted in Swiss albino mouse assessed as increase in life span at 0.5 mg/mouse administered for 9 days relative to control; assay type: functional
WI-38 = test: Cytotoxicity against human W138 cells assessed as decrease in cell viability after 48 hrs by MTT assay; assay type: cell-based; details: WI-38, 48 h
Mus musculus [3] = test: Toxicity in Swiss albino mouse implanted with mouse EAC cells assessed as effect on WBC count at 0.5 mg/mouse administered for 9 days (reference value: 23.96 10^3/mm3); assay type: organism-based; details: in vivo, 216 h
HeLa = test: Cytotoxicity against human HeLa cells assessed as decrease in cell viability after 48 hrs by MTT assay; assay type: functional, cell-based
Ehrlich [4] = test: Antitumor activity against mouse EAC cells implanted in Swiss albino mouse assessed as mean survival time at 0.5 mg/mouse administered for 9 days (reference value: 14.5 day); assay type: functional
Aspergillus fumigatus = test: Antimicrobial activity against Aspergillus fumigatus 293 after 48 hrs by two-fold serial dilution method; assay type: functional; details: Af293, 48 h
Mus musculus [5] = test: Toxicity in Swiss albino mouse implanted with mouse EAC cells assessed as effect on hemoglobin content at 0.5 mg/mouse administered for 9 days (reference value: 8.15 g/dl); assay type: organism-based; details: in vivo, 216 h
MCF7 = test: Cytotoxicity against human MCF7 cells assessed as decrease in cell viability after 48 hrs by MTT assay; assay type: functional, cell-based; details: MCF7, 48 h
Escherichia coli = test: Antimicrobial activity against Escherichia coli ATCC 12435 after 24 hrs by two-fold serial dilution method; assay type: functional; details: ATCC 12435, 24 h
Staphylococcus aureus = test: Antimicrobial activity against Staphylococcus aureus ATCC 29213 after 24 hrs by two-fold serial dilution method; assay type: functional; details: ATCC 29213, 24 h
Ehrlich [6] = test: Antitumor activity against mouse EAC cells implanted in Swiss albino mouse assessed as effect on viable tumor cell count at 0.5 mg/mouse administered for 9 days by trypan blue staining based method (reference value: 83.20 10^6/ml); assay type: functional
HepG2 = test: Cytotoxicity against human HepG2 cells assessed as decrease in cell viability after 48 hrs by MTT assay; assay type: functional, cell-based; details: HepG2, 48 h
Pseudomonas aeruginosa = test: Antimicrobial activity against Pseudomonas aeruginosa PAO1 after 24 hrs by two-fold serial dilution method; assay type: functional; details: PAO1, 24 h
Aspergillus flavus = test: Antimicrobial activity against Aspergillus flavus 3375 after 48 hrs by two-fold serial dilution method; assay type: functional; details: Aspergillus flavus, 3375, 48 h
[7] = system: Chromobacterium violaceum; test: Inhibition of N-acyl-homoserinlactone-related quorum sensing system in Chromobacterium violaceum ATCC 12472 assessed as diameter of violacein pigment inhibition after 48 hrs
WISH = test: Cytotoxicity against human WISH cells assessed as decrease in cell viability after 48 hrs by MTT assay; assay type: cell-based
[8] = Displacement of methyl green from DNA (unknown origin) incubated in dark for 24 hrs
Ehrlich [9] = test: Antitumor activity against mouse EAC cells implanted in Swiss albino mouse assessed as effect on tumor volume at 0.5 mg/mouse administered for 9 days (reference value: 9.85 mL); assay type: functional
Bacillus cereus = test: Antimicrobial activity against Bacillus cereus UW 85 after 24 hrs by two-fold serial dilution method; assay type: functional; details: UW 85, 24 h

Compound	MIC (Candida albicans) [µM]	Activity (Mus musculus [1]) [×10⁶ /mm3]	ILS (Ehrlich [2]) [%]	Activity (Mus musculus [3]) [×10³ /mm3]	IC50 (HeLa) [µM]	MST (Ehrlich [4]) [days]	MIC (Aspergillus fumigatus) [µM]	Activity (Mus musculus [5]) [g/dL]	IC50 (MCF7) [µM]	MIC (Escherichia coli) [µM]	MIC (Staphylococcus aureus) [µM]	Activity (Ehrlich [6]) [×10⁶ /ml]	IC50 (HepG2) [µM]	MIC (Pseudomonas aeruginosa) [µM]	MIC (Aspergillus flavus) [µM]	inhibition zone (IZ) [7] [mm]	IC50 (WISH) [µM]	IC50 [8] [µM]	Activity (Ehrlich [9]) [mL]	MIC (Bacillus cereus) [µM]	other results
OC(Cn1cncn1)(Cn1cncn1)c1ccc(F)cc1F [FLUCONAZOLE]	6530 (≈ 2000 µg/mL)																				
Cc1n[nH]c2c1C(c1ccc(N(C)C)cc1)C=C(N)N2 (stereo not given)	3710 (≈ 1000 µg/mL)	4.53	72.2	12.69	27.4	31	3710 (≈ 1000 µg/mL)	10.95	11.2	7430 (≈ 2000 µg/mL)	3710 (≈ 1000 µg/mL)	51.17	20.6	3710 (≈ 1000 µg/mL)	3710 (≈ 1000 µg/mL)	< 2	21.6	56.4	4.8	3710 (≈ 1000 µg/mL)	IC50 (WI-38): 18.1 µM
Cc1n[nH]c2c1C(c1ccc(N(C)C)cc1)C(C(=O)NNc1cc([N+](=O)[O-])ccc1[N+](=O)[O-])=C(N)N2 (stereo not given)	1010 (≈ 500 µg/mL)	5.24	133.3	10.32	8.52	42	1010 (≈ 500 µg/mL)	13.1	13	1010 (≈ 500 µg/mL)	507 (≈ 250 µg/mL)	34.73	8.68	507 (≈ 250 µg/mL)	1010 (≈ 500 µg/mL)	2.5	51.2	34	2.8	253 (≈ 125 µg/mL)	IC50 (WI-38): 55.4 µM
Cc1n[nH]c2c1C(c1ccc(N(C)C)cc1)C(C(=O)NNC(N)=S)=C(N)N2 (stereo not given)	1290 (≈ 500 µg/mL)	5.59	155.5	8.52	6.26	46	1290 (≈ 500 µg/mL)	13.4	5.21	1290 (≈ 500 µg/mL)	647 (≈ 250 µg/mL)	30.94	6.32	647 (≈ 250 µg/mL)	1290 (≈ 500 µg/mL)	< 2	49	36.7	2.25	647 (≈ 250 µg/mL)	IC50 (WI-38): 53.5 µM
Cc1n[nH]c2c1C(c1ccc(N(C)C)cc1)C(C(=O)NN)=C(N)N2 (stereo not given)	1530 (≈ 500 µg/mL)				51.3		1530 (≈ 500 µg/mL)		42.6	1530 (≈ 500 µg/mL)	764 (≈ 250 µg/mL)		66.4	764 (≈ 250 µg/mL)	1530 (≈ 500 µg/mL)	5		68.2		764 (≈ 250 µg/mL)	
Cc1n[nH]c2c1C(c1ccc(N(C)C)cc1)C(C(=O)N/N=C/c1ccc(Cl)cc1)=C(N)N2 (stereo not given)	1110 (≈ 500 µg/mL)				31.7		2220 (≈ 1000 µg/mL)		25.2	556 (≈ 250 µg/mL)	556 (≈ 250 µg/mL)		39.5	556 (≈ 250 µg/mL)	2220 (≈ 1000 µg/mL)	< 2		67.8		556 (≈ 250 µg/mL)	
Cc1n[nH]c2c1C(c1ccc(N(C)C)cc1)C(C(N)=O)=C(N)N2 (stereo not given)	6400 (≈ 2000 µg/mL)	5.94	238.9	8.2	5.77	61	3200 (≈ 1000 µg/mL)	14	4.55			21.46	5.28	3200 (≈ 1000 µg/mL)	6400 (≈ 2000 µg/mL)	< 2	76.4	28	1.35		IC50 (WI-38): 68.5 µM
COc1cccc2c1C(=O)c1c(O)c3c(c(O)c1C2=O)C[C@@](O)(C(=O)CO)C[C@@H]3O[C@H]1C[C@H](N)[C@H](O)[C@H](C)O1 [DOXORUBICIN]		5.32	244.4	8.96		62		12.75				16.36					8.14	31.3	1		
Cc1n[nH]c2c1C(c1ccc(N(C)C)cc1)C(C(=O)N/N=C1/C(=O)Nc3ccccc31)=C(N)N2 (stereo not given)	2190 (≈ 1000 µg/mL)				52.9		2190 (≈ 1000 µg/mL)		59.1	4380 (≈ 2000 µg/mL)	2190 (≈ 1000 µg/mL)		57.9	548 (≈ 250 µg/mL)	2190 (≈ 1000 µg/mL)	< 2				2190 (≈ 1000 µg/mL)	
Oc1cc(O)c2c(c1)O[C@H](c1ccc(O)c(O)c1)[C@@H](O)C2																2					
CC1(C)S[C@@H]2[C@H](NC(=O)[C@H](N)c3ccccc3)C(=O)N2[C@H]1C(=O)O [AMPICILLIN]										44.7 (≈ 15.6 µg/mL)	716 (≈ 250 µg/mL)									1430 (≈ 500 µg/mL)	
Cc1n[nH]c2c1C(c1ccc(N(C)C)cc1)C(C(=O)n1ncc(C#N)c1N)=C(N)N2 (stereo not given)	4960 (≈ 2000 µg/mL)				60.2		2480 (≈ 1000 µg/mL)		62.7				66.3	620 (≈ 250 µg/mL)	2480 (≈ 1000 µg/mL)	< 2					
Cc1n[nH]c2c1C(c1ccc(N(C)C)cc1)C(C(=O)O)=C(N)N2 (stereo not given)	798 (≈ 250 µg/mL)				33.6		399 (≈ 125 µg/mL)		22	199 (≈ 62.5 µg/mL)	99.7 (≈ 31.3 µg/mL)		39.7	199 (≈ 62.5 µg/mL)	399 (≈ 125 µg/mL)	11		41.7		99.7 (≈ 31.3 µg/mL)	
